Test system: DPH-labelled synthetic vesicles
Experiment: Synthetic vesicle membrane fluidity assay (DPH fluorescence polarisation)
Conditions: increasing SSA concentration; polar phospholipid membranes, excluding PC only; 298 K
Method: To further explore the effects of SSAs on physical phospholipid membrane characteristics, membrane fluidity experiments were performed. Here a dye (1,6-diphenyl-1,3,5-hexatriene – DPH) was inserted into the synthetic vesicle membrane to enable the study of increased/decreased membrane fluidity through competitive fluorescence polarisation (FP) measurements. In these studies, FP values are found to decrease with increasing membrane fluidity and vice versa. However, these studies could only be performed with SSAs 1–4 and 7 due to overlapping SSA/DHP fluorescence emission.
Section 2: General Methods […]
All solvents and starting materials were purchased from known chemical suppliers or available stores and used without any further purification unless specifically stipulated. […] Fluorescence and fluorescence polarisation measurements were conducted using a Clariostar plate reader and analysed using MARS data analysis […]
Preparation of calcein loaded vesicles: Lipid films were resuspended in buffer A (70 mM calcein, 10 mM TRIS pH 8.5, 0.5 mM EDTA, 110 mM NaCl, pH adjusted to 6-7) and subjected to 9 freeze-thaw cycles in liquid nitrogen and extruded 20 times through a 200 nm polycarbonate membrane. […] The hydrodynamic dimeter of the lipids was monitored using an Anton Paar LitesizerTM 500 to ensure the separation of free and entrapped calcein. […]

## O=C(O)CNC(=O)Nc1ccc(C(F)(F)F)cc1 [SSA 4]
  overall change in FP (membrane fluidity): > 10%

Source: paper PMC9400670, “Establishing the selective phospholipid membrane coordination, permeation and lysis properties for a series of ‘druggable’ supramolecular self-associating antimicrobial amphiphiles” (Chemical Science, 2022)
